# From patent US20050245399A1, “Pyrazole derivatives as herbicidal compositions containing them” (ISHIHARA SANGYO KAISHA, LTD., priority 2004, published 2005)
# Key:
# Type in all cases: in vivo
# [1] = system: barnyardgrass (Echinochloa crus-galli L.): ECHCG; assay: Test Example 1 pre-emergence herbicidal activity, ECHCG; details: visually observed 20th to 23rd day after application
# Procedure, shortened: (§1)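 Pots of upland soil were sown, and one day later WP or EC formulations at set active-ingredient rates were sprayed pre-emergence in 500 L/ha water. Growth control scored visually 20–23 days after application, 0 (as untreated) to 100 (complete kill).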
# [2] = system: crabgrass (Digitaria sanguinalis L.): DIGSA; assay: Test Example 1 pre-emergence herbicidal activity, DIGSA; details: visually observed 20th to 23rd day after application
# Procedure, shortened: as §1
# [3] = system: green foxtail (Setaria viridis L.): SETVI; assay: Test Example 1 pre-emergence herbicidal activity, SETVI; details: visually observed 20th to 23rd day after application
# Procedure, shortened: as §1
# [4] = system: redroot pigweed (Amaranthus retroflexus L.): AMARE; assay: Test Example 1 pre-emergence herbicidal activity, AMARE; details: visually observed 20th to 23rd day after application
# Procedure, shortened: as §1
# [5] = system: prickly sida (Sida spinosa L.): SEDSP; assay: Test Example 1 pre-emergence herbicidal activity, SIDSP; details: visually observed 20th to 23rd day after application
# Procedure, shortened: as §1
# [6] = system: velvetleaf (Abutilon theophrasti): ABUTH; assay: Test Example 1 pre-emergence herbicidal activity, ABUTH; details: visually observed 20th to 23rd day after application
# Procedure, shortened: as §1
# [7] = system: rice (Oryza sativa L.): ORYSA; assay: Test Example 1 pre-emergence herbicidal activity, ORYSA; details: visually observed 20th to 23rd day after application
# Procedure, shortened: as §1
# [8] = system: wheat (Triticum aestivum L.): TRZAX; assay: Test Example 1 pre-emergence herbicidal activity, TRZAX; details: visually observed 20th to 23rd day after application
# Procedure, shortened: as §1
# [9] = system: corn (Zea mays L.): ZEAMX; assay: Test Example 1 pre-emergence herbicidal activity, ZEAMX; details: visually observed 20th to 23rd day after application
# Procedure, shortened: as §1
# [10] = system: soybean (Glycine max Merr.): GLXMA; assay: Test Example 1 pre-emergence herbicidal activity, GLXMA; details: visually observed 20th to 23rd day after application
# Procedure, shortened: as §1
# [11] = system: barnyardgrass (Echinochloa crus-galli L.), ECHCG; assay: Test Example 2 post-emergence (foliage treatment) herbicidal activity, ECHCG; details: 63 g a.i./ha
# Procedure, shortened: (§2)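 Plants grown in upland soil pots were sprayed on foliage at set leaf stages (ECHCG 1.1-2.1, DIGSA 1.0-2.0, AMARE 0.1-1.5, ORYSA 1.0-2). Formulated compound was applied at predetermined active-ingredient amounts in 500 L/ha water with 0.1% (v/v) spreader. Growth control (0–100%) was visually scored 20–23 days later.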
# [12] = system: crabgrass (Digitaria sanguinalis L.), DIGSA; assay: Test Example 2 post-emergence (foliage treatment) herbicidal activity, DIGSA; details: 63 g a.i./ha
# Procedure, shortened: as §2
# [13] = system: green foxtail (Setaria viridis L.), SETVI; assay: Test Example 2 post-emergence (foliage treatment) herbicidal activity, SETVI; details: 63 g a.i./ha
# Procedure, shortened: (§3)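 Each species was evaluated for growth suppression by eye, 0% matching untreated and 100% meaning death, some 20 to 23 days after a single post-emergence foliar treatment applied in 500 L/ha of water carrying 0.1% (v/v) agricultural spreader.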
# [14] = system: redroot pigweed (Amaranthus retroflexus L.), AMARE; assay: Test Example 2 post-emergence (foliage treatment) herbicidal activity, AMARE; details: 63 g a.i./ha
# Procedure, shortened: as §2
# [15] = system: prickly sida (Sida spinosa L.), SIDSP; assay: Test Example 2 post-emergence (foliage treatment) herbicidal activity, SIDSP; details: 63 g a.i./ha
# Procedure, shortened: as §3
# [16] = system: velvetleaf (Abutilon theophrasti), ABUTH; assay: Test Example 2 post-emergence (foliage treatment) herbicidal activity, ABUTH; details: 63 g a.i./ha
# Procedure, shortened: as §3
# [17] = system: rice (Oryza sativa L.), ORYSA; assay: Test Example 2 post-emergence (foliage treatment) herbicidal activity, ORYSA; details: 63 g a.i./ha
# Procedure, shortened: as §2
# [18] = system: wheat (Triticum aestivum L.), TRZAX; assay: Test Example 2 post-emergence (foliage treatment) herbicidal activity, TRZAX; details: 63 g a.i./ha
# Procedure, shortened: as §3
# [19] = system: corn (Zea mays L.), ZEAMX; assay: Test Example 2 post-emergence (foliage treatment) herbicidal activity, ZEAMX; details: 63 g a.i./ha
# Procedure, shortened: as §3
# [20] = system: soybean (Glycine max Merr.), GLXMA; assay: Test Example 2 post-emergence (foliage treatment) herbicidal activity, GLXMA; details: 63 g a.i./ha
# Procedure, shortened: as §3
# [21] = system: barnyardgrass (Echinochiloa oryzicola: ECHOR); assay: Test Example 3 water application herbicidal activity (paddy), ECHOR; details: 63 g a.i./ha, water application under submerged condition at 0.5 leaf stage, visually observed 14th day after application; 0 = untreated control, 100 = complete kill
# Procedure, shortened: (§4)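 Compound, as diluted wettable powder or emulsifiable concentrate, was pipetted into flood water at a set active-ingredient dose. Weeds were treated at 0.5-leaf stage after sowing or tuber planting; 2-leaf rice 4 days post-transplant. Control scored visually, 0 untreated to 100 complete kill, weeds day 14, rice day 21.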
# [22] = system: japanese bulrush (Scirpus juncoides: SCPJO); assay: Test Example 3 water application herbicidal activity (paddy), SCPJO; details: 63 g a.i./ha, water application under submerged condition at 0.5 leaf stage, visually observed 14th day after application; 0 = untreated control, 100 = complete kill
# Procedure, shortened: as §4
# [23] = system: japanese ribbon wapato (Sagittaria pygmaea: SA GPY); assay: Test Example 3 water application herbicidal activity (paddy), SAGPY; details: 63 g a.i./ha, water application under submerged condition, tubers planted, visually observed 14th day after application; 0 = untreated control, 100 = complete kill
# Procedure, shortened: as §4
# [24] = system: rice (Oryza sativa L.: ORYSA); assay: Test Example 3 water application herbicidal activity (paddy), transplanted rice ORYSA; details: 63 g a.i./ha, water application 4th day after transplantation of 2 leaf stage rice, visually observed 21st day after application; 0 = untreated control, 100 = complete kill
# Procedure, shortened: as §4
Compound,"growth controlling degree, ECHCO [11] [%]","growth controlling degree, DIGSP [12] [%]","growth controlling degree, SETVI [13] [%]","growth controlling degree, AMARE [14] [%]","growth controlling degree, SIDSP [15] [%]","growth controlling degree, ABUTH [16] [%]","growth controlling degree, ORYSA [17] [%]","growth controlling degree, TRZAX [18] [%]","growth controlling degree, ZEAMX [19] [%]","growth controlling degree, GLXMA [20] [%]",growth controlling degrees (%) ECHOR [21] [%],growth controlling degrees (%) SCPJO [22] [%],growth controlling degrees (%) SAGPY [23] [%],growth controlling degrees (%) ORYSA [24] [%],Pre-emergence Herbicidal Activity ECHCG (growth controlling degree) ([1]; Rate 63 g a.i./ha) [%],Pre-emergence Herbicidal Activity DIGSP (growth controlling degree) ([2]; Rate 63 g a.i./ha) [%],Pre-emergence Herbicidal Activity SETVI (growth controlling degree) ([3]; Rate 63 g a.i./ha) [%],Pre-emergence Herbicidal Activity AMARE (growth controlling degree) ([4]; Rate 63 g a.i./ha) [%],Pre-emergence Herbicidal Activity SIDSP (growth controlling degree) ([5]; Rate 63 g a.i./ha) [%],Pre-emergence Herbicidal Activity ABUTH (growth controlling degree) ([6]; Rate 63 g a.i./ha) [%],also measured
COCCOC(=O)N(C(=O)OCCOC)c1c(OC)c(Cl)cc(F)c1-c1nn(C)c(OC(F)F)c1Cl [Compound 1-54],90,70,80,100,100,100,98,30,50,60,98,30,30,40,,,,,,,Pre-emergence Herbicidal Activity ECHCG (growth controlling degree) ([1]; Rate 125 g a.i./ha): 20%; Pre-emergence Herbicidal Activity DIGSP (growth controlling degree) ([2]; Rate 125 g a.i./ha): 100%; Pre-emergence Herbicidal Activity SETVI (growth controlling degree) ([3]; Rate 125 g a.i./ha): 100%; Pre-emergence Herbicidal Activity AMARE (growth controlling degree) ([4]; Rate 125 g a.i./ha): 100%; Pre-emergence Herbicidal Activity SIDSP (growth controlling degree) ([5]; Rate 125 g a.i./ha): 95%; Pre-emergence Herbicidal Activity ABUTH (growth controlling degree) ([6]; Rate 125 g a.i./ha): 80%; Pre-emergence Herbicidal Activity ORYSA (growth controlling degree) ([7]; Rate 125 g a.i./ha): 30%; Pre-emergence Herbicidal Activity TRZAX (growth controlling degree) ([8]; Rate 125 g a.i./ha): 20%; Pre-emergence Herbicidal Activity ZEAMX (growth controlling degree) ([9]; Rate 125 g a.i./ha): 0%; Pre-emergence Herbicidal Activity GLXMA (growth controlling degree) ([10]; Rate 125 g a.i./ha): 10%
COc1cccc(C(=O)Nc2c(OC)c(Cl)cc(F)c2-c2nn(C)c(OC(F)F)c2Cl)c1 [Compound 1-28],100,100,100,100,90,100,95,40,90,98,100,80,100,50,80,100,100,100,100,100,Pre-emergence Herbicidal Activity ORYSA (growth controlling degree) ([7]; Rate 63 g a.i./ha): 60%; Pre-emergence Herbicidal Activity TRZAX (growth controlling degree) ([8]; Rate 63 g a.i./ha): 20%; Pre-emergence Herbicidal Activity ZEAMX (growth controlling degree) ([9]; Rate 63 g a.i./ha): 0%; Pre-emergence Herbicidal Activity GLXMA (growth controlling degree) ([10]; Rate 63 g a.i./ha): 20%
C#CCNc1c(OC(F)F)c(Cl)cc(F)c1-c1nn(C)c(OC(F)F)c1Cl [Compound 1-87],100,100,100,100,100,100,70,50,100,95,100,100,100,70,100,100,100,100,98,80,Pre-emergence Herbicidal Activity ORYSA (growth controlling degree) ([7]; Rate 63 g a.i./ha): 60%; Pre-emergence Herbicidal Activity TRZAX (growth controlling degree) ([8]; Rate 63 g a.i./ha): 10%; Pre-emergence Herbicidal Activity ZEAMX (growth controlling degree) ([9]; Rate 63 g a.i./ha): 0%; Pre-emergence Herbicidal Activity GLXMA (growth controlling degree) ([10]; Rate 63 g a.i./ha): 40%
COc1c(Cl)cc(F)c(-c2nn(C)c(OC(F)F)c2Cl)c1NC(=O)C(C)C [Compound 1-3],70,95,100,100,100,100,80,40,70,80,100,98,100,80,100,100,100,100,100,100,Pre-emergence Herbicidal Activity ORYSA (growth controlling degree) ([7]; Rate 63 g a.i./ha): 80%; Pre-emergence Herbicidal Activity TRZAX (growth controlling degree) ([8]; Rate 63 g a.i./ha): 40%; Pre-emergence Herbicidal Activity ZEAMX (growth controlling degree) ([9]; Rate 63 g a.i./ha): 50%; Pre-emergence Herbicidal Activity GLXMA (growth controlling degree) ([10]; Rate 63 g a.i./ha): 20%
C#CCNc1c(OC)c(Cl)cc(F)c1-c1nn(C)c(OC(F)F)c1Cl [Compound 1-53],100,100,100,100,100,100,95,40,100,95,100,100,100,70,100,100,100,100,100,100,Pre-emergence Herbicidal Activity ORYSA (growth controlling degree) ([7]; Rate 63 g a.i./ha): 50%; Pre-emergence Herbicidal Activity TRZAX (growth controlling degree) ([8]; Rate 63 g a.i./ha): 20%; Pre-emergence Herbicidal Activity ZEAMX (growth controlling degree) ([9]; Rate 63 g a.i./ha): 20%; Pre-emergence Herbicidal Activity GLXMA (growth controlling degree) ([10]; Rate 63 g a.i./ha): 30%
